Experimental data as given in ChEMBL document CHEMBL1157938, “Cytotoxicity and inhibition of DNA topoisomerase I of polyhydroxylated triterpenoids and triterpenoid glycosides” (Bioorg Med Chem Lett, 2010).
Calls of active or inactive are those of the source. The calls are words filed in the database; no cut-off is given here.

Tests used:
A549 = assay: Cytotoxicity against human A549 cells at 25 uM after 48 hrs by WST8 assay; assay type: functional, cell-based
PC-3 = assay: Cytotoxicity against human PC3 cells at 25 uM after 48 hrs by WST8 assay; assay type: functional, cell-based
HL-60 = assay: Cytotoxicity against human HL60 cells at 25 uM after 48 hrs by WST8 assay; assay type: functional, cell-based
PANC-1 = assay: Cytotoxicity against human PANC1 cells at 25 uM after 48 hrs by WST8 assay; assay type: functional, cell-based
MRC5 = assay: Cytotoxicity against human MRC5 cells at 25 uM after 48 hrs by WST8 assay; assay type: cell-based; conditions: mrc5, 48 h
DNA topoisomerase 1 = molecular target: T1, DNA topoisomerase 1 (Homo sapiens, UniProt P11387); assay: Inhibition of human DNA topoisomerase 1-mediated relaxation of supercoiled DNA by gel electrophoresis
T1 sequence (P11387 whole entry): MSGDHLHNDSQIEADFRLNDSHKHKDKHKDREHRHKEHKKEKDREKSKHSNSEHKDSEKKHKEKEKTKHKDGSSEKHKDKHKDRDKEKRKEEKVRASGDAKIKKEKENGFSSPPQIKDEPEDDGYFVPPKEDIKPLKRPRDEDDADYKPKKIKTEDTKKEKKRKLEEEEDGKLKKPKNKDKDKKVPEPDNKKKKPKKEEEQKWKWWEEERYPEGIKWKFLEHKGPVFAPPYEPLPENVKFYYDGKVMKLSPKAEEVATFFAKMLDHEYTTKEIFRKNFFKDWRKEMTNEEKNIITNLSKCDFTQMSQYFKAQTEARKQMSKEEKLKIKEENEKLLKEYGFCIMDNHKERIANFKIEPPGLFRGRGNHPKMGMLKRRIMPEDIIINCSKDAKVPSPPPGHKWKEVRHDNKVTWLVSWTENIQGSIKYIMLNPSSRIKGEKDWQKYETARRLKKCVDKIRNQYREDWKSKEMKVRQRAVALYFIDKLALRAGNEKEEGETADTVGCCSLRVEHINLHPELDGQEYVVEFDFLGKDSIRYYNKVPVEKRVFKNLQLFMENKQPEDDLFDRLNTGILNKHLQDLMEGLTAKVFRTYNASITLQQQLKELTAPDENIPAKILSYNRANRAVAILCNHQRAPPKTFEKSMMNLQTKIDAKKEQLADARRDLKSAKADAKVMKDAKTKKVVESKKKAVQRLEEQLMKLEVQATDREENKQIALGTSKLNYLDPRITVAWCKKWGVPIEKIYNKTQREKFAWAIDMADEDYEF

[1] = molecular target: DNA topoisomerase 2-alpha (Homo sapiens, UniProt P11388); assay: Inhibition of human DNA topoisomerase 2-mediated relaxation of supercoiled DNA by gel electrophoresis
Sequence of DNA topoisomerase 2-alpha (P11388 whole entry): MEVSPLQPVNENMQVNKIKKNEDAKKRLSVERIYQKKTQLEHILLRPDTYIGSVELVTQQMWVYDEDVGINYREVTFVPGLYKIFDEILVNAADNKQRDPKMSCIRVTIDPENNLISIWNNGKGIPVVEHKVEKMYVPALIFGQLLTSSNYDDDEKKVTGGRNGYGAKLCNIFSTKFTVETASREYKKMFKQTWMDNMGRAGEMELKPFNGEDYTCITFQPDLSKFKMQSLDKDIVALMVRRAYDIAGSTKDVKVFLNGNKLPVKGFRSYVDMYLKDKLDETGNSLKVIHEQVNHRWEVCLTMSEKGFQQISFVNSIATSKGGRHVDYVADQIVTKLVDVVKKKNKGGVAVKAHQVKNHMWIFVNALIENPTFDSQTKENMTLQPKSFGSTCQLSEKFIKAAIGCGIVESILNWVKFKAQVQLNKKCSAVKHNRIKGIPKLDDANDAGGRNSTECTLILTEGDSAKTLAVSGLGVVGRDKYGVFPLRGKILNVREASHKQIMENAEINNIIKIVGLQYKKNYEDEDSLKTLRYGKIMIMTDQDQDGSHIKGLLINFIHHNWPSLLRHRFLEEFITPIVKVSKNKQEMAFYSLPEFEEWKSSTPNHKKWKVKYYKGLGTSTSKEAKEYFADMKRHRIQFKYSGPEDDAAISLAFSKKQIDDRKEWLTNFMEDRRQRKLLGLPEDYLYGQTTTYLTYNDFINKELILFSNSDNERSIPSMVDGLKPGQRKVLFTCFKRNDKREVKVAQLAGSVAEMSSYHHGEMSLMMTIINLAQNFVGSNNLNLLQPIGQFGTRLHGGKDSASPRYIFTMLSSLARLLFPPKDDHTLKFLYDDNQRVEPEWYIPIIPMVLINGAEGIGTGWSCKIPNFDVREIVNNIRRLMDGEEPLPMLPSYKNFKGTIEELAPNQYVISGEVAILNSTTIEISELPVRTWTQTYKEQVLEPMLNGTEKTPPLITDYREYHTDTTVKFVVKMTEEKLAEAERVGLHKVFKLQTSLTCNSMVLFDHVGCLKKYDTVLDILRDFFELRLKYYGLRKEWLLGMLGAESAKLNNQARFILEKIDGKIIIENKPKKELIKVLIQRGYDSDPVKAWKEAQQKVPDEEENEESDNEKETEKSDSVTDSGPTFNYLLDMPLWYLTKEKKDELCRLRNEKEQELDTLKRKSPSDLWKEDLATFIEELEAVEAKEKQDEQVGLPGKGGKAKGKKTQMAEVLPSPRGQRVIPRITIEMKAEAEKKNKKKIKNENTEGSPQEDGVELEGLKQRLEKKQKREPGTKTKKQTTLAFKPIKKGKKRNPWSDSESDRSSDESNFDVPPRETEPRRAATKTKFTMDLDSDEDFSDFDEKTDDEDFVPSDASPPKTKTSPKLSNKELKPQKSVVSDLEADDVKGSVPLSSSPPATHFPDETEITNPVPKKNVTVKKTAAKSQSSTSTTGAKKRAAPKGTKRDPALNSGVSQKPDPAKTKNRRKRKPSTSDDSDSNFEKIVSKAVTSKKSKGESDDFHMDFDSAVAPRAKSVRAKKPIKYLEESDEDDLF

Compound	growth inhibition (GI) (A549)	growth inhibition (GI) (PC-3)	growth inhibition (GI) (HL-60)	growth inhibition (GI) (PANC-1)	growth inhibition (GI) (MRC5)	IC50 (DNA topoisomerase 1)	IC50 [1]
C[C@@H]1[C@@H](O)[C@H](O)[C@@H](O[C@H]2CC(C)(C)C[C@H]3C4=CC[C@@H]5[C@@]6(C)CC[C@H](O[C@@H]7O[C@H](CO)[C@@H](O)[C@H](O)[C@H]7O[C@@H]7O[C@H](CO)[C@@H](O)[C@H](O)[C@H]7O[C@@H]7O[C@H](CO)[C@H](O)[C@H](O)[C@H]7O)C(C)(C)[C@@H]6CC[C@@]5(C)[C@]4(C)C[C@@H](O)[C@@]23CO)O[C@H]1CO [ERYNGIOSIDE B]	inactive	inactive	inactive	inactive	Not Active	–	–
C[C@@H]1[C@@H](O)[C@H](O)[C@@H](O[C@H]2CC(C)(C)C[C@H]3C4=CC[C@@H]5[C@@]6(C)CC[C@H](O[C@@H]7O[C@H](CO)[C@@H](O)[C@H](O)[C@H]7O[C@@H]7O[C@H](CO)[C@@H](O)[C@H](O)[C@H]7O[C@@H]7O[C@H](CO)[C@@H](O)[C@H](O)[C@H]7O)C(C)(C)[C@@H]6CC[C@@]5(C)[C@]4(C)CC(=O)[C@@]23CO)O[C@H]1CO [ERYNGIOSIDE C]	inactive	inactive	inactive	inactive	Not Active	–	–
C[C@@H]1O[C@H](O[C@@H]2[C@@H](O)[C@H](O[C@H]3CC[C@]4(C)[C@H]5CC=C6[C@@H]7CC(C)(C)CC[C@]7(C(=O)O[C@@H]7O[C@H](CO)[C@@H](O)[C@H](O)[C@H]7O)CC[C@@]6(C)[C@]5(C)CC[C@H]4C3(C)C)O[C@H](C(=O)O)[C@H]2O)[C@H](O)[C@H](O)[C@H]1O	inactive	inactive	inactive	inactive	Not Active	–	–
CC1(C)C[C@H]2C3=CC[C@@H]4[C@@]5(C)CC[C@H](O[C@@H]6O[C@H](C(=O)O)[C@@H](O)[C@H](O[C@@H]7O[C@@H](CO)[C@H](O)[C@H]7O)[C@H]6O[C@@H]6O[C@H](CO)[C@@H](O)[C@H](O)[C@H]6O)[C@](C)(CO)[C@@H]5CC[C@@]4(C)[C@]3(C)[C@@H](O)[C@@H](O)[C@@]2(CO)[C@@H](O)[C@@H]1O [AESCULIOSIDE IB]	inactive	inactive	inactive	inactive	Not Active	–	–
CC1(C)CC[C@]2(C(=O)O[C@@H]3O[C@H](CO)[C@@H](O)[C@H](O)[C@H]3O)CC[C@]3(C)C(=CC[C@@H]4[C@@]5(C)CC[C@H](O[C@@H]6O[C@H](C(=O)O)[C@@H](O)[C@H](O)[C@H]6O)C(C)(C)[C@@H]5CC[C@]43C)[C@@H]2C1 [CHIKUSETSUSAPONIN IVA]	inactive	inactive	inactive	inactive	Not Active	–	–
CC1(C)C[C@H]2C3=CC[C@@H]4[C@@]5(C)CC[C@H](O[C@@H]6O[C@H](C(=O)O)[C@@H](O)[C@H](O[C@@H]7O[C@@H](CO)[C@H](O)[C@H]7O)[C@H]6O[C@@H]6O[C@H](CO)[C@H](O)[C@H](O)[C@H]6O)C(C)(C)[C@@H]5CC[C@@]4(C)[C@]3(C)[C@@H](O)[C@@H](O)[C@@]2(CO)[C@@H](O)[C@@H]1O [AESCULIOSIDE IA]	inactive	inactive	inactive	inactive	Not Active	–	–
C[C@@H]1O[C@H](O[C@H]2CC[C@]3(C)[C@H]4CC=C5[C@@H]6CC(C)(C)CC[C@]6(C(=O)O[C@@H]6O[C@H](CO)[C@@H](O)[C@H](O)[C@H]6O)CC[C@@]5(C(=O)O)[C@]4(C)CC[C@H]3C2(C)C)[C@@H](O)[C@H](O)[C@H]1O	inactive	inactive	inactive	inactive	Not Active	–	–
C[C@@H]1[C@@H](O)[C@H](O)[C@@H](O[C@H]2CC(C)(C)C[C@H]3C4=CC[C@@H]5[C@@]6(C)CC[C@H](O[C@@H]7O[C@H](CO)[C@@H](O)[C@H](O)[C@H]7O[C@@H]7O[C@H](CO)[C@@H](O)[C@H](O)[C@H]7O[C@@H]7O[C@H](CO)[C@@H](O)[C@H](O)[C@H]7O)C(C)(C)[C@@H]6CC[C@@]5(C)[C@]4(C)C[C@@H](O)[C@@]23CO)O[C@H]1CO [ERYNGIOSIDE A]	inactive	inactive	inactive	inactive	Not Active	–	–
C/C=C(\C)C(=O)O[C@H]1[C@H](OC(C)=O)[C@]2(CO)[C@H](O)C[C@]3(C)C(=CC[C@@H]4[C@@]5(C)CC[C@H](O[C@@H]6O[C@H](C(=O)O)[C@@H](O)[C@H](O[C@@H]7O[C@@H](CO)[C@H](O)[C@H]7O)[C@H]6O[C@@H]6O[C@H](CO)[C@@H](O)[C@H](O)[C@H]6O)[C@](C)(CO)[C@@H]5CC[C@]43C)[C@@H]2CC1(C)C [AESCULIOSIDE IIH]	inactive	inactive	inactive	inactive	Not Active	–	–
CC(C)=CCC[C@](C)(O[C@@H]1O[C@H](CO[C@@H]2OC[C@H](O)[C@H](O)[C@H]2O)[C@@H](O)[C@H](O)[C@H]1O)[C@H]1CC[C@]2(C)[C@@H]1[C@H](O)C[C@@H]1[C@@]3(C)CC[C@H](O)C(C)(C)[C@@H]3[C@@H](O)C[C@]12C [GINSENOSIDE F3]	inactive	inactive	inactive	inactive	–	> 250 µM	> 250 µM
CC(C)=CCC[C@](C)(O)[C@H]1CC[C@]2(C)[C@@H]1[C@H](O)C[C@@H]1[C@@]3(C)CC[C@H](O[C@@H]4O[C@H](CO)[C@@H](O)[C@H](O)[C@H]4O[C@@H]4O[C@H](CO)[C@@H](O)[C@H](O)[C@H]4O)C(C)(C)[C@@H]3CC[C@]12C	inactive	inactive	inactive	inactive	–	> 250 µM	> 250 µM
C[C@H]1[C@H](C)CC[C@]2(C(=O)O[C@@H]3O[C@H](CO)[C@@H](O)[C@H](O)[C@H]3O[C@@H]3OC[C@H](O)[C@H](O)[C@H]3O)CC[C@]3(C(=O)O)C(=CC[C@@H]4[C@@]5(C)CC[C@H](O[C@@H]6O[C@H](CO)[C@@H](O)[C@H](O)[C@H]6O)C(C)(C)[C@@H]5CC[C@]43C)[C@H]12	inactive	inactive	inactive	inactive	–	> 250 µM	> 250 µM
C[C@H]1[C@H](C)CC[C@]2(C(=O)O[C@@H]3O[C@H](CO)[C@@H](O)[C@H](O)[C@H]3O)CC[C@]3(C(=O)O)C(=CC[C@@H]4[C@@]5(C)CC[C@H](O[C@@H]6O[C@H](CO)[C@@H](O[C@H]7O[C@@H](C)[C@H](O)[C@@H](O)[C@H]7O)[C@H](O)[C@H]6O)C(C)(C)[C@@H]5CC[C@]43C)[C@H]12	inactive	inactive	inactive	inactive	–	> 250 µM	> 250 µM
C[C@H]1[C@H](C)CC[C@]2(C(=O)O)CC[C@]3(C(=O)O)C(=CC[C@@H]4[C@@]5(C)CC[C@H](O[C@@H]6O[C@H](CO)[C@@H](O)[C@H](O)[C@H]6O)C(C)(C)[C@@H]5CC[C@]43C)[C@H]12	inactive	inactive	inactive	inactive	–	> 250 µM	> 250 µM
CC(C)=CCC[C@](C)(O[C@@H]1O[C@H](CO)[C@@H](O)[C@H](O)[C@H]1O)[C@H]1CC[C@]2(C)[C@@H]1[C@H](O)C[C@@H]1[C@@]3(C)CC[C@H](O[C@@H]4O[C@H](CO)[C@@H](O)[C@H](O)[C@H]4O[C@@H]4O[C@H](CO)[C@@H](O)[C@H](O)[C@H]4O)C(C)(C)[C@@H]3CC[C@]12C [GINSENOSIDE RD]	inactive	inactive	inactive	inactive	–	> 250 µM	> 250 µM
